The supplement of paper PMC10307832

Tests used:
Assay in all cases: relative viability (nuclei count vs DMSO), 5 days (fraction); higher = more cells survive
AZ505 + Foretinib = compound: C1CCC(CC1)N(CCNCCC2=C3C(=C(C=C2)O)NC(=O)CO3)C(=O)CCNCCC4=CC(=C(C=C4)Cl)Cl [AZ505] + COc1cc2c(Oc3ccc(NC(=O)C4(C(=O)Nc5ccc(F)cc5)CC4)cc3F)ccnc2cc1OCCCN1CCOCC1 [Foretinib] (partner 0.25 µM)
Method in brief: (§1)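 Relative viability divides the nuclei count in treated wells by that in vehicle wells. Lung cancer cell lines were seeded in 1536-well plates, dosed by pin tool the next day, and fixed and stained after 5 days in one step with final 0.05% Triton X-100, 1% formaldehyde and 1 ug/ml Hoechst. Dosing was a single drug or a fixed anchor-drug dose plus five library-drug doses (not always all listed) in √10 steps, and values are medians of duplicate plates imaged at 4×.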

Dactolisib + Pemetrexed = compound: Cn1c(=O)n(-c2ccc(C(C)(C)C#N)cc2)c2c3cc(-c4cnc5ccccc5c4)ccc3ncc21 [Dactolisib] + Nc1nc2[nH]cc(CCc3ccc(C(=O)N[C@@H](CCC(=O)O)C(=O)O)cc3)c2c(=O)[nH]1 [Pemetrexed] (partner 0.2 µM)
Method in brief: as §1

Dactolisib + OSI-027 = compound: Cn1c(=O)n(-c2ccc(C(C)(C)C#N)cc2)c2c3cc(-c4cnc5ccccc5c4)ccc3ncc21 [Dactolisib] + COc1cccc2cc(-c3nc([C@H]4CC[C@H](C(=O)O)CC4)n4ncnc(N)c34)[nH]c12 [OSI-027] (partner 0.5 µM)
Method in brief: as §1

Dactolisib + Lapatinib = compound: Cn1c(=O)n(-c2ccc(C(C)(C)C#N)cc2)c2c3cc(-c4cnc5ccccc5c4)ccc3ncc21 [Dactolisib] + CS(=O)(=O)CCNCc1ccc(-c2ccc3ncnc(Nc4ccc(OCc5cccc(F)c5)c(Cl)c4)c3c2)o1 [Lapatinib] (partner 2 µM)
Method in brief: as §1

| Cell Line | relative viability (AZ505 + Foretinib; first compound 0.08 µM) | relative viability (AZ505 + Foretinib; first compound 0.253 µM) | relative viability (AZ505 + Foretinib; first compound 0.8 µM) | relative viability (AZ505 + Foretinib; first compound 2.53 µM) | relative viability (AZ505 + Foretinib; first compound 8 µM) | relative viability (Dactolisib + Pemetrexed; first compound 0.002 µM) | relative viability (Dactolisib + Pemetrexed; first compound 0.006325 µM) | relative viability (Dactolisib + Pemetrexed; first compound 0.02 µM) | relative viability (Dactolisib + Pemetrexed; first compound 0.06325 µM) | relative viability (Dactolisib + Pemetrexed; first compound 0.2 µM) | relative viability (Dactolisib + OSI-027; first compound 0.002 µM) | relative viability (Dactolisib + OSI-027; first compound 0.006325 µM) | relative viability (Dactolisib + OSI-027; first compound 0.02 µM) | relative viability (Dactolisib + OSI-027; first compound 0.06325 µM) | relative viability (Dactolisib + OSI-027; first compound 0.2 µM) | relative viability (Dactolisib + Lapatinib; first compound 0.002 µM) | relative viability (Dactolisib + Lapatinib; first compound 0.006325 µM) | relative viability (Dactolisib + Lapatinib; first compound 0.02 µM) | relative viability (Dactolisib + Lapatinib; first compound 0.06325 µM) | relative viability (Dactolisib + Lapatinib; first compound 0.2 µM) |
| --- | --- | --- | --- | --- | --- | --- | --- | --- | --- | --- | --- | --- | --- | --- | --- | --- | --- | --- | --- | --- |
| NCI-H2009 | 1.18 | 1.21 | 1.19 | 1.17 | 1.17 | 1.09 | 1.07 | 1 | 0.964 | 0.498 | 0.74 | 0.659 | 0.754 | 0.404 | 0.266 | 1.1 | 1.01 | 0.95 | 0.9 | 0.327 |
| NCI-H2023 | 0.743 | 0.916 | 0.869 | 0.854 | 0.776 | 0.172 | 0.182 | 0.179 | 0.101 | 0.0876 | 0.412 | 0.357 | 0.344 | 0.15 | 0.108 | 0.282 | 0.615 | 0.597 | 0.127 | 0.137 |
| NCI-H2085 | 0.698 | 0.887 | 0.915 | 0.821 | 1.08 | 0.905 | 0.884 | 0.811 | 0.345 | 0.273 | 0.737 | 0.609 | 0.663 | 0.319 | 0.269 | 0.798 | 0.657 | 0.659 | 0.359 | 0.337 |
| NCI-H2087 | 1.12 | 1.02 | 0.997 | 1.14 | 1.21 | 0.627 | 0.684 | 0.625 | 0.521 | 0.506 | 1.05 | 0.572 | 0.53 | 0.43 | 0.252 | 1.21 | 1.16 | 1.23 | 0.855 | 0.563 |
| NCI-H2126 | 0.892 | 1.16 | 1.19 | 1.1 | 1.13 | 0.574 | 0.717 | 0.612 | 0.471 | 0.372 | 0.92 | 0.733 | 0.687 | 0.618 | 0.458 | 0.826 | 0.799 | 0.745 | 0.641 | 0.476 |
| NCI-H2170 | 1.05 | 1.07 | 0.994 | 1.03 | 0.934 | 0.262 | 0.258 | 0.281 | 0.261 | 0.263 | 0.763 | 0.639 | 0.689 | 0.543 | 0.37 | 0.263 | 0.289 | 0.262 | 0.235 | 0.222 |
| NCI-H2228 | 0.644 | 0.799 | 0.809 | 0.823 | 0.665 | 0.35 | 0.352 | 0.324 | 0.252 | 0.144 | 0.497 | 0.426 | 0.417 | 0.186 | 0.176 | 0.993 | 0.914 | 0.496 | 0.246 | 0.246 |
| NCI-H2347 | – | 0.743 | 0.719 | – | 1.04 | 0.459 | 0.459 | 0.426 | 0.411 | 0.422 | 0.407 | 0.52 | 0.635 | 0.41 | 0.332 | 1.16 | 0.943 | 0.843 | 0.906 | 0.813 |
| NCI-H2405 | 0.755 | 0.776 | 0.746 | 0.767 | 0.746 | 1.1 | 1.03 | 0.972 | 0.641 | 0.378 | 0.67 | 0.652 | 0.685 | 0.543 | 0.464 | 1.03 | 1.11 | 1.01 | 0.735 | 0.393 |
| NCI-H3122 | 0.889 | 0.993 | 0.837 | 0.964 | 1.05 | 0.171 | 0.189 | 0.203 | 0.192 | 0.211 | 0.903 | 0.976 | 0.948 | 0.739 | 0.373 | 1.07 | 1.02 | 1.03 | 1.08 | 0.795 |
| PC-3 [JPC-3] | 0.945 | 0.936 | 0.923 | 0.991 | 1.04 | 1.35 | 1.11 | 1 | 1.26 | 0.555 | 0.862 | 0.86 | 0.72 | 0.851 | 0.768 | 0.486 | 0.492 | 0.44 | 0.456 | 0.361 |
| PC-14 | 0.922 | 0.927 | 1.03 | 1.01 | 0.937 | 0.0904 | 0.129 | 0.192 | 0.197 | 0.145 | 0.863 | 0.755 | 0.662 | 0.2 | 0.0989 | 0.33 | 0.347 | 0.318 | 0.186 | 0.141 |
| RERF-LC-KJ | 0.906 | 0.829 | 0.8 | 0.46 | 0.863 | 0.488 | 0.479 | 0.46 | 0.433 | 0.434 | 0.699 | 0.604 | 0.585 | 0.397 | 0.433 | 0.901 | 0.823 | 0.829 | 0.53 | 0.418 |
| SK-LU-1 | 0.542 | 0.58 | 0.612 | 0.515 | 0.51 | 0.944 | 0.913 | 0.874 | 0.747 | 0.439 | 0.277 | 0.42 | 0.362 | 0.283 | 0.226 | 0.857 | 0.782 | 0.728 | 0.509 | 0.27 |
| SK-MES-1 | 0.765 | 0.774 | 0.824 | 0.782 | 0.738 | 0.993 | 0.837 | 0.847 | 0.417 | 0.367 | 0.612 | 0.601 | 0.603 | 0.324 | 0.242 | 0.476 | 0.452 | 0.428 | 0.352 | 0.296 |
| SW 1573 | 0.873 | 0.993 | 0.918 | 0.817 | 0.959 | 0.696 | 0.768 | 0.584 | 0.284 | 0.203 | 0.702 | 0.579 | 0.5 | 0.199 | 0.167 | 1.13 | 1.08 | 1.04 | 0.458 | 0.367 |
